From ChEMBL document CHEMBL1138531, “Pharmacokinetics of penicillin G in infants with a gestational age of less than 32 weeks” (Antimicrob Agents Chemother, 2007) come the findings set out here.

SMILES strings stand for the structures.

What all share (format): ADME, organism-based
Series [1] can be described thus: Volume of distribution in neonates. Particulars: human, in vivo.
Series [2] in a line: Elimination half life in preterm neonates with septicemia or invasive infections with gestational age of less than 32 weeks at 50000 U/kg, iv administered every 12 hrs. Particulars: human, in vivo, read-out: beta t1/2 (converted).
Series [3] in a line: Volume of distribution at steady state in preterm neonates with septicemia or invasive infections with gestational age of less than 32 weeks at 50000 U/kg, iv administered every 12 hrs. To be noted: human, in vivo, read-out: Vdss.
A short description of series [4]: Half life in iv dosed neonates with gestational age of 27 to 40 weeks. To be noted: human, in vivo.
Series [5] is described as follows: Volume of distribution in central compartment in preterm neonates with septicemia or invasive infections with gestational age of less than 32 weeks at 50000 U/kg, iv administered every 12 hrs. Particulars: human, in vivo, read-out: Vc.
Series [6] in a line: Volume of distribution in iv dosed neonates with gestational age of 27 to 40 weeks. Particulars: human, in vivo.
A short description of series [7]: Clearance in preterm neonates with septicemia or invasive infections with gestational age of less than 32 weeks at 50000 U/kg, iv administered every 12 hrs. Particulars: human, in vivo.
For series [8], the system named is Homo sapiens. In words: Apparent peripheral volume of distribution in preterm neonates with septicemia or invasive infections with gestational age of less than 32 weeks at 50000 U/kg, iv administered every 12 hrs. Particulars: in vivo.
Series [9] concerns Homo sapiens. In words: Intercompartmental clearance in preterm neonates with septicemia or invasive infections with gestational age of less than 32 weeks at 50000 U/kg, iv administered every 12 hrs. To be noted: in vivo.
Series [10] is described as follows: Clearance in iv dosed neonates with gestational age of 27 to 40 weeks. To be noted: human, in vivo.

In series [1], `CC1(C)S[C@@H]2[C@H](NC(=O)[C@H](N)c3ccc(O)cc3)C(=O)N2[C@H]1C(=O)O` [AMOXICILLIN] returned a Vd of 0.41 L/kg.

The molecule `CC1(C)S[C@@H]2[C@H](NC(=O)[C@H](N)c3ccccc3)C(=O)N2[C@H]1C(=O)O` [AMPICILLIN] gave a Vd in series [1] of 0.3 L/kg.

In general, clearance refers to the rate of elimination divided by the concentration. A lower clearance goes with a low capacity for elimination. Consider `CC1(C)S[C@@H]2[C@H](NC(=O)Cc3ccccc3)C(=O)N2[C@H]1C(=O)O` [PENICILLIN G], for which the values for the half-life in series [2] and in [4] were 3.9 h and 3.8 h, respectively. Also, the Vd in series [3] came out at 0.54 L; in [1], 0.45 L/kg; in [5], 0.359 L; in series [6], 0.61 L/kg. In addition, the clearance in series [7] was 1.72 mL/min; in series [10], 2 mL/min/kg. Further, the Vp/F in the series with Homo sapiens [8] is 0.152 L. This molecule came in with a CL in the series with Homo sapiens [9] of 0.774 L/h.
